US20240417342A1, “METHOD FOR PRODUCING GRANULAR COMPOSITION CONTAINING GLUTATHIONE” (KANEKA CORPORATION, priority 2022, published 2024)
Like-named read-outs stand apart in the source and are kept apart here.

Test: Solubility in water at 20° C.
Type: physicochemical
Procedure: Specifically, the percentage can be expressed as the number of grams of the nitrogen-containing fertilizer component that is soluble in 100 ml of water at 20° C.

Structure (SMILES) | solubility in water at 20° C. [g/100 mL] | solubility in water at 20° C. (% = g per 100 ml water) [%]
NC(=O)NC1NC(=O)NC1=O (stereo not drawn) [allantoin] | 0.5 | 0.5
N[C@@H](Cc1c[nH]cn1)C(=O)O [L-histidine] | 4.2 | 4.2
CC[C@H](C)[C@H](N)C(=O)O [L-isoleucine] | 4.0 | 4.0
